Measured values reported in US9657312B2, “Replication competent pseudo-type retrovirus vector system” (Inje University Industry-Academic Cooperation Foundation, priority 2012, dated 2017).

Test system: U-87 MG cells
Test: MTT assay of cytotoxicity of vector-infected cells treated with GCV
Type: cell-based, human
Conditions: normal (non-infected) cells
Description: In order to measure a degree of cytotoxicity of the cells infected with the spRCR-TK vector when treated with GCV in vitro, MTT assay was carried out. First, a vector carrying a therapeutic gene, TK, instead of a GFP gene of the Env vector was prepared. Then, the 293T cells were transfected with the prepared vector and a Gag-pol vector, so as to manufacture the spRCR-TK vector. Then, the U-87 MG cells were infected with the virus of the spRCR-TK vector, and maintained for 14 days. Afterwards, the infected cells and non-infected cells were inoculated into a 96-well plate. […] The GCV treatment period was divided as the 1st, 2nd, 3rd, and 4th day, to perform MTT assay.

## Nc1nc(O)c2ncn(COC(CO)CO)c2n1 [GCV, Ganciclovir]
  GCV concentration from which normal cells show cytotoxicity: ≥ 70 µg/mL
